Experimental data as given in PubChem BioAssay AID859 (Vanderbilt High Throughput Screening Facility, 2007).

Biological target: Muscarinic acetylcholine receptor M1 (Rattus norvegicus) (UniProt P08482)
Assay: rat M1 muscarinic receptor antagonist potency, dose response, cell-based, calcium fluorescence (AID 859)
Details: M1-expressing cells, antagonist mode vs EC80

Muscarinic acetylcholine receptor M1 (Rattus norvegicus), sequence (P08482 whole entry, looked up): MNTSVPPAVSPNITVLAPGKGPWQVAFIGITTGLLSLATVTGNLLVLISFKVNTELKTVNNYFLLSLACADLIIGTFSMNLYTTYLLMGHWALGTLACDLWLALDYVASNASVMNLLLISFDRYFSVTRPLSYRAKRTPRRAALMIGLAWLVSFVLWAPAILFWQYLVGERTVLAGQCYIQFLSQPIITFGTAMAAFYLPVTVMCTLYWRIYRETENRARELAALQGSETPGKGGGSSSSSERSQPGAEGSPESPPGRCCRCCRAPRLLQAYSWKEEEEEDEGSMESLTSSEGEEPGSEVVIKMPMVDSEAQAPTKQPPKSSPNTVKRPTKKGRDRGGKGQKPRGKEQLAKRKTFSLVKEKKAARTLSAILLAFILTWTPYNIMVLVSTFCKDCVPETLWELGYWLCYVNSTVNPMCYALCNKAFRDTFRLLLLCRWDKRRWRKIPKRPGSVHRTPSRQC

CCN1CCN(Cc2cc(=O)oc3cc(C)cc(C)c23)CC1
IC50: 974 nM

O=C1CC(N2CCN(C/C=C/c3ccccc3)CC2)C(=O)N1Cc1cccs1 (stereo unspecified)
IC50: 846 nM

O=C(CN1CCCC(O)C1)N1c2ccccc2Sc2ccc(C(F)(F)F)cc21 (stereo unspecified)
IC50: 766 nM

Clc1ccc(OCc2nnc(SCCN3CCCCC3)n2Cc2ccco2)cc1
IC50: 1400 nM

CNCCCC1c2ccccc2C=Cc2ccccc21
IC50: 1260 nM

CN(C)CCCOC(=O)C1c2ccccc2Oc2ccccc21
IC50: 63.7 nM

CN1CCN(C2=Nc3ccccc3Oc3ccc(Cl)cc32)CC1
IC50: 1210 nM

CN1CCC(OC(=O)C2c3ccccc3Oc3ccccc32)CC1
IC50: 9.27 nM

OC(CCN1CCCCC1)(c1ccccc1)c1ccccc1
IC50: 58 nM

CCC(C)N(CCNC(=O)CC1Oc2ccc(C)cc2NC1=O)C1CCCCC1 (stereo unspecified)
IC50: 1000 nM

O=C1CC(N2CCN(c3ccc(S(=O)(=O)N4CCOCC4)cc3)CC2)C(=O)N1Cc1ccccc1 (stereo unspecified)
IC50: 777 nM

OC(CCN1CCCC1)(c1ccccc1)C1CCCCC1 (stereo unspecified)
IC50: 116 nM

CC[N+]1(C)CCCC(OC(=O)C(O)(c2ccccc2)c2ccccc2)C1 (stereo unspecified)
IC50: 15.9 nM

COC(=O)Nc1ccc2c(c1)N(C(=O)CCN1CCOCC1)c1ccccc1S2
IC50: 1060 nM

Cc1ccc2c(c1)NC(=O)C(CC(=O)Nc1ccc(CN3CCC(C)CC3)cc1)O2 (stereo unspecified)
IC50: 290 nM

Cc1cccc(Cn2c(Sc3nc(C)cs3)nc3c2c(=O)[nH]c(=O)n3C)c1
IC50: 20.2 nM

Cc1ccc2nc(NC3=NCN(CCN4CCOCC4)CN3)nc(C)c2c1
IC50: 2.77 nM

CC1CCN(Cc2ccc(NC(=O)CC3Oc4ccccc4NC3=O)cc2)CC1 (stereo unspecified)
IC50: 234 nM

CCOC(=O)Nc1ccc2c(c1)N(C(=O)N1CCN(C)CC1)c1ccccc1S2
IC50: 1410 nM

O=C(CN1CCN(CCOCCO)CC1)N1c2ccccc2Sc2ccc(Cl)cc21
IC50: 1030 nM

CN1CCCN=C1COC(=O)C(O)(c1ccccc1)C1CCCCC1 (stereo unspecified)
IC50: 12.6 nM

CCN1C(=O)/C(=C\N2CCCCCC2)SC1=S
IC50: 438 nM

C=CCSc1nnc2c(n1)OC(c1cccnc1)N(C(C)=O)c1ccccc1-2 (stereo unspecified)
IC50: 190 nM

Cn1cc(CN2CCN(c3ccccc3)CC2)c2ccccc21
IC50: 226 nM

CCOc1nc(C#N)nc(N2CCCCC2)n1
IC50: 1350 nM

c1ccc(-c2cc(-c3nnc4sc(-c5ccccn5)nn34)[nH]n2)cc1
IC50: 414 nM

CN(C)CCOC(=O)C(c1ccccc1)C1(O)CCCC1 (stereo unspecified)
IC50: 25.7 nM

Cc1nc2c(o1)CCc1ccccc1C2N1CCN(C)CC1 (stereo unspecified)
IC50: 46.4 nM

O=C(OCCN1CCCC1)C1(c2ccccc2)CCCC1
IC50: 182 nM

CN1CCN(CCC(C#N)(c2ccccc2)c2ccccc2)CC1
IC50: 395 nM

CCCC(CCC)C(=O)OC1C[C@H]2CC[C@@H](C1)[N+]2(C)C (stereo partly specified)
IC50: 302 nM

CCN(CCCCOC(=O)c1ccc(OC)c(OC)c1)C(C)Cc1ccc(OC)cc1 (stereo unspecified)
IC50: 1160 nM

Cc1onc(-c2ccccc2Cl)c1C(=O)Nc1ccc(-c2nnc3n2CCCCC3)cc1
IC50: 491 nM

CN(C)CCC=C1c2ccccc2CCc2ccccc21
IC50: 637 nM

Cc1c(C(=O)OC(C)CCN(C)C)oc2ccccc12 (stereo unspecified)
IC50: 681 nM

CCN(CC)CCOC(=O)C(c1ccccc1)c1ccccc1
IC50: 327 nM
